Structures can show the parent of a compound that is named as a salt.

These results are taken from US20250042855A1, “PERIPHERALLY AND LUMINALLY-RESTRICTED INHIBITORS OF THE SEROTONIN TRANSPORTER AS TREATMENTS FOR DISORDERS OF GASTROINTESTINAL MOTILITY AND GUT-BRAIN AXIS” (The Johns Hopkins University, priority 2021, published 2025).

For assay [1], the target named is T1, serotonin transporter SERT (Homo sapiens, UniProt P31645).
T1 construct: host or cells: HEK-293
As to the kind of experiment: Uptake of serotonin (5-HT) in human HEK-293 cells, quantitation of [3H] serotonin. The assay is classed as cell-based. The note with it: HEK293, 0.25 h, 10 micromolar concentration, 15 minutes @ 25° C., read-out: Activity Range: antagonism of uptake of serotonin (5-HT). The method, then: Uptake of serotonin (5-Hydroxytryptamine (5-HT)) in human HEK-293 cells embryonic kidney was measured according to the literature procedure by Gu H, Wall S. C. and Rudnick G. J Biol Chem. 1994 269, 7124. Using the following conditions: • Quantitation Method: Quantitation of [^3H] Serotonin • Vehicle: 0.50% DMSO • Incubation Time/Temp: 15 minutes @ 25° C. • Incubation Buffer: 5 mM Tris —HCl, 7.5 mM HEPES, pH 7.1, 120 mM NaCl, 5.4 mM KCl, • 1.2 mM CaCl2, 1.2 mM MgSO4, 5 mM DGlucose, 1 mM Ascorbic Acid
Any compound with minimum of 20% antagonism at 10 micromolar concentration as described above, is deemed a SERT inhibitor.

Assay [2] concerns gastric emptying in C57B/6 mice. Put plainly: Gastric emptying (phenol red) in IBS and control mice after 10 days of oral treatment. In kind it is in vivo. As to conditions: P<0.05; for gastric emptying: 10 mg/kg by gavage once a day for 10 days, versus vehicle. The text has this:
In this experiment our aim was to study the effects of N-(2-((diaminomethylene)amino)ethyl)-4-(((3S,4R)-4-(4-fluorophenyl)piperidin-3-yl)methoxy)benzamide (example 8) in healthy mice as well as those with a model of gastrointestinal dysmotility (irritable bowel syndrome). The IBS model was induced by mild neonatal colorectal irritation in C57B/6 mice; control mice received saline. Twenty μL of 0.5% acetic acid (AA) or saline were infused into the colorectum of mice during postnatal day 9-12. Pups were weaned at 3 weeks of age and allowed to grow up normally and tested after 8-12 weeks of age.
Male IBS and control mice were treated with vehicle, Example 8 (10 mg/kg) and paroxetine (10 mg/kg) by gavage (10 ml/kg) once a day for 10 days. On the day 9, mice were fasted overnight. On the day 10, mice were treated with drugs followed by gavage with 0.3 ml of 0.05% phenol red in methylcellulose solution. Fifteen minutes later, mice were sacrificed and the stomach was removed after ligating the cardia and pylorus with hemostats. One mouse was sacrificed immediately after gavage of phenol red (0 time) used as control. The stomachs were homogenized and phenol red were extracted. After measuring the density of phenol red, the gastric empty was calculated as
The data were analyzed by Two-WAY ANOVA followed by Student-Newman-Keuls post-hoc test.

The mark [3] stands for this setting: IBS mice (neonatal acetic acid colorectal irritation).

T1 sequence (P31645 whole entry): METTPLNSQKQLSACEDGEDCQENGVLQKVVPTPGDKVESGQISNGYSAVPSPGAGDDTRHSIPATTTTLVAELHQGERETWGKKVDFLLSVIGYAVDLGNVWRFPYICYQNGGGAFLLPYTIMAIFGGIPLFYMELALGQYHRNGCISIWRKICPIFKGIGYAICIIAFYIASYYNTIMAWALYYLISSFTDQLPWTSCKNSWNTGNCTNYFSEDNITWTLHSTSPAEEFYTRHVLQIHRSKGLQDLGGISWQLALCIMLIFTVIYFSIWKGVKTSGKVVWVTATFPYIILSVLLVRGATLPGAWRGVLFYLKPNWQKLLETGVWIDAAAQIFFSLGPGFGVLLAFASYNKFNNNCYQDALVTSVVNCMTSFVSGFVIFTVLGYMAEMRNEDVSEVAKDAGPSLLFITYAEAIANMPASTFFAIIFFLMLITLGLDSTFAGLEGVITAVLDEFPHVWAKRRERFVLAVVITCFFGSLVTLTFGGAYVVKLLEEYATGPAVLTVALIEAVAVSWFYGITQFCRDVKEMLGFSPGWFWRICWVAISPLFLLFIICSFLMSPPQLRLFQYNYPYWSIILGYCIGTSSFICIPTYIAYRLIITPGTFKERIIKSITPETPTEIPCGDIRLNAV

In the case of `O=C(O)c1ccc(OC[C@@H]2CNCC[C@H]2c2ccc(F)cc2)cc1` [Example 1, 4-(((3S,4R)-4-(4-fluorophenyl)piperidin-3-yl)methoxy)benzoic acid hydrochloride], in assay [1], the inhibition at 10 µM was greater than 50%.

With `O=C(O)c1cccc(OC[C@@H]2CNCC[C@H]2c2ccc(F)cc2)c1` [Example 2, 3-(((3S,4R)-4-(4-fluorophenyl)piperidin-3-yl)methoxy)benzoic acid hydrochloride], in assay [1], the inhibition at 10 µM lay within 40 to 50%.

Turning to `O=C(O)c1ccc(OC[C@@H]2CNCC[C@H]2c2ccc(F)cc2)cc1O` [Example 3, 4-(((3S,4R)-4-(4-fluorophenyl)piperidin-3-yl)methoxy)-2-hydroxybenzoic acid hydrochloride], in assay [1], the inhibition at 10 µM is greater than 50%.

For `COc1ccc(OC[C@@H]2CNCC[C@H]2c2ccc(F)cc2)cc1C(=O)O` [Example 4, 5-(((3S,4R)-4-(4-fluorophenyl)piperidin-3-yl)methoxy)-2-methoxybenzoic acid hydrochloride], the inhibition at 10 µM in assay [1] is greater than 50%.

With `NCCNC(=O)c1ccc(OC[C@@H]2CNCC[C@H]2c2ccc(F)cc2)cc1` [Example 5, N-(2-aminoethyl)-4-(((3S,4R)-4-(4-fluorophenyl)piperidin-3-yl)-methoxy)benzamide hydrochloride], the inhibition at 10 µM in assay [1] is greater than 50%.

Take `CN(C)CCNC(=O)c1ccc(OC[C@@H]2CNCC[C@H]2c2ccc(F)cc2)cc1` [Example 6, N-(2-(dimethylamino)ethyl)-4-(((3S,4R)-4-(4-fluorophenyl)piperidin-3-yl)methoxy)benzamide hydrochloride]: the inhibition at 10 µM in assay [1] was greater than 50%.

For `CN(C)CCN(C)C(=O)c1ccc(OC[C@@H]2CNCC[C@H]2c2ccc(F)cc2)cc1` [Example 7, N-(2-(dimethylamino)ethyl)-4-(((3S,4R)-4-(4-fluorophenyl)piperidin-3-yl)methoxy)-N-methylbenzamide hydrochloride], in assay [1], the inhibition at 10 µM was greater than 50%.

Take `NC(N)=NCCNC(=O)c1ccc(OC[C@@H]2CNCC[C@H]2c2ccc(F)cc2)cc1` [Example 8, N-(2-((diaminomethylene)amino)ethyl)-4-(((3S,4R)-4-(4-fluorophenyl)piperidin-3-yl)methoxy)benzamide]: in assay [2] (FIG. 1, chronic treatment, versus H2O treated group in the same model), the liquid gastric emptying result was “increases”. Also, the gastric emptying result in assay [2] (setting [3]) and in assay [2] (saline (control) mice) was “significantly increased” each time. Moreover, the inhibition at 10 µM in assay [1] was greater than 50%.

Take `NC(=O)NCCNC(=O)c1ccc(OC[C@@H]2CNCC[C@H]2c2ccc(F)cc2)cc1` [Example 9, 4-(((3S,4R)-4-(4-fluorophenyl)piperidin-3-yl)methoxy)-N-(2-ureidoethyl)benzamide hydrochloride]: the inhibition at 10 µM in assay [1] was greater than 50%.

Consider `NCCOc1ccc(OC[C@@H]2CNCC[C@H]2c2ccc(F)cc2)cc1` [Example 10, 2-(4-(((3S,4R)-4-(4-fluorophenyl)piperidin-3-yl)methoxy)phenoxy)-ethan-1-amine hydrochloride], for which the inhibition at 10 µM in assay [1] was in the range of 40 to 50%.

Consider `CN(C)CCOc1ccc(OC[C@@H]2CNCC[C@H]2c2ccc(F)cc2)cc1` [Example 11, 2-(4-(((3S,4R)-4-(4-fluorophenyl)piperidin-3-yl)methoxy)phenoxy)-N,N-dimethylethan-1-amine hydrochloride], for which, in assay [1], the inhibition at 10 µM lay in the range of 40 to 50%.

For `CN(C)CCCOc1ccc(OC[C@@H]2CNCC[C@H]2c2ccc(F)cc2)cc1` [Example 12, 3-(4-(((3S,4R)-4-(4-fluorophenyl)piperidin-3-yl)methoxy)phenoxy)-N,N-dimethylpropan-1-amine hydrochloride], in assay [1], the inhibition at 10 µM was greater than 50%.

Turning to `OCCOc1ccc(OC[C@@H]2CNCC[C@H]2c2ccc(F)cc2)cc1` [Example 13, 2-(4-(((3S,4R)-4-(4-fluorophenyl)piperidin-3-yl)methoxy)phenoxy)ethan-1-ol hydrochloride], in assay [1], the inhibition at 10 µM was greater than 50%.

On to `OCCOCCOc1ccc(OC[C@@H]2CNCC[C@H]2c2ccc(F)cc2)cc1` [Example 14, 2-(2-(4-(((3S,4R)-4-(4-fluorophenyl)piperidin-3-yl)methoxy)phenoxy)ethoxy)ethan-1-ol hydrochloride], for which the inhibition at 10 µM in assay [1] fell in the range of 20 to 40%.

With `O=C(O)COc1ccc(OC[C@@H]2CNCC[C@H]2c2ccc(F)cc2)cc1` [Example 15, 2-(4-(((3S,4R)-4-(4-fluorophenyl)piperidin-3-yl)methoxy)phenoxy)acetic acid hydrochloride], the inhibition at 10 µM in assay [1] lay in the range of 20 to 40%.

Consider `O=C(O)COCCOc1ccc(OC[C@@H]2CNCC[C@H]2c2ccc(F)cc2)cc1` [Example 16, 2-(2-(4-(((3S,4R)-4-(4-fluorophenyl)piperidin-3-yl)methoxy)phenoxy)-ethoxy)acetic acid hydrochloride], for which the inhibition at 10 µM in assay [1] lay in the range of 20 to 40%.

As for `C[N+]1(C)CC[C@@H](c2ccc(F)cc2)[C@H](CCc2ccc3c(c2)OCO3)C1` [Example 17, (3S,4R)-3-(2-(benzo[d][1,3]dioxol-5-yl)ethyl)-4-(4-fluorophenyl)-1,1-dimethylpiperidin-1-ium iodide], in assay [1], the inhibition at 10 µM is greater than 50%.

In the case of `Fc1ccc([C@@H]2CCNC[C@H]2COc2ccc3c(c2)OCO3)cc1` [paroxetine, reference compound], the gastric emptying result in assay [2] (setting [3]) and in assay [2] (saline (control) mice) was “not observed” each time.
